What was measured:
Human opioid (ORL1) = biological target: T1, Human opioid (ORL1) (Homo sapiens, UniProt P41146); experiment: Radioligand binding, human opioid ORL1 membranes, FlashPlate, [125I]-Nociceptin; conditions: compound at 10 μM; for A10 radioligand binding, percentage inhibition / A10: inhibition of radioligand binding, human opioid (ORL1): [125I]-Nociceptin
T1 construct: purchased Perkin Elmer Biosignal
Outline: (§1)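 Cloned human receptor membranes were coated onto FlashPlate wells and incubated with radioligand and compound (added from a 0.5 mM DMSO daughter plate) for 1 hour at room temperature in the dark. Scintillation counting gave percent inhibition, with DMSO defining total and reference ligand defining non-specific binding.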

Human Melanocortin (MC4) = biological target: T2, Human Melanocortin (MC4) (Homo sapiens, UniProt P32245); experiment: Radioligand binding, human melanocortin MC4 membranes, FlashPlate, [125I]-NDP-αMSH; conditions: compound at 10 μM; for A4 radioligand binding, percentage inhibition / A4: inhibition of radioligand binding, human melanocortin (MC4): [125I]-NDP-αMSH
T2 construct: purchased Perkin Elmer Biosignal
Outline: as §1

Human κ-Opioid (KOP) = biological target: T3, Human κ-Opioid (KOP) (Homo sapiens, UniProt P41145); experiment: Radioligand binding, human κ-opioid (KOP) membranes, filtration, [3H]-Diprenorphine; conditions: compound at 10 μM; for A2 radioligand binding, percentage inhibition / A2: inhibition of radioligand binding, human κ-opioid (KOP): [3H]-Diprenorphine
T3 construct: purchased Perkin Elmer Biosignal
Outline: (§2)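 Percent inhibition of radioligand binding measured on recombinant human membranes: NK1 with [125I]-Substance P, KOP with [3H]-Diprenorphine. Incubation 1 h at room temperature, then harvest onto 0.3% PEI-soaked filters, cold Tris-HCl pH 7.4 washes and scintillation counting; non-specific binding from reference ligand wells.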

[1] = biological target: T4, Human neuropeptide Y (NPY-Y1) (Homo sapiens, UniProt P25929); experiment: Radioligand binding, human neuropeptide Y NPY-Y1 membranes, FlashPlate, [125I]-PYY; conditions: compound at 10 μM; for A9 radioligand binding, percentage inhibition / A9: inhibition of radioligand binding, human neuropeptide Y (NPY-Y1): [125I]-PYY
T4 construct: purchased Perkin Elmer Biosignal
T4 sequence (P25929 1-384): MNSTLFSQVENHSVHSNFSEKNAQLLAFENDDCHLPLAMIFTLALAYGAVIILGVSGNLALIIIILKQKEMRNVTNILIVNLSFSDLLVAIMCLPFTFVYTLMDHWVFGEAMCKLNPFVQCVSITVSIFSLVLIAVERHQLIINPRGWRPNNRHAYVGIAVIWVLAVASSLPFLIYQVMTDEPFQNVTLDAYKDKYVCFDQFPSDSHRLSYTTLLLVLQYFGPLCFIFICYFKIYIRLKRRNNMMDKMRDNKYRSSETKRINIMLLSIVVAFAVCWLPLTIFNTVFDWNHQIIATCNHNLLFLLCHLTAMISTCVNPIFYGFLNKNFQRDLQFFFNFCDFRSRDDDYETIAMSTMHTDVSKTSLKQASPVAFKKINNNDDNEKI
Outline: as §1

Mouse urotensin (mUR2) = biological target: T5, Mouse urotensin (mUR2) (Mus musculus, UniProt Q8VIH9); experiment: Radioligand binding, mouse urotensin mUR2 membranes, FlashPlate, [125I]-Urotensin II; conditions: compound at 10 μM; for A11 radioligand binding, percentage inhibition / A11: inhibition of radioligand binding, mouse urotensin (mUR2): [125I]-Urotensin II
T5 construct: purchased Perkin Elmer Biosignal
T5 sequence (Q8VIH9 1-385): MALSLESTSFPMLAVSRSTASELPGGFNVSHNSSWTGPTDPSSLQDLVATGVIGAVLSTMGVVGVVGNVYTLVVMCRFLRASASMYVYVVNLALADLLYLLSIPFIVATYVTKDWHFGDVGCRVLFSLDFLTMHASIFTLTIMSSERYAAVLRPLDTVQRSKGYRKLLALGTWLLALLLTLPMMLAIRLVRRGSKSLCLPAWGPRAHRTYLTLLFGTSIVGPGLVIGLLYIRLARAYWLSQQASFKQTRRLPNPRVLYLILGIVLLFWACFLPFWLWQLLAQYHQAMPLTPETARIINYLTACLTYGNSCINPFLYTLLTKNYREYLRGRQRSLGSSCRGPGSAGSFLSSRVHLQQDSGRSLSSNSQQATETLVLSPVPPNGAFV
Outline: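 Cloned mouse urotensin (mUR2) receptor membranes from Perkin Elmer Biosignal were immobilized in FlashPlate microplates using a proprietary coating. Each well got 19.5 μl buffer, then 0.5 μl of DMSO, reference ligand, or compound. Adding 5 μl of [125I]-Urotensin II, diluted to 5× final concentration in binding buffer, started binding. Plates were sealed with TopSeal-A and incubated 1 hour at room temperature in the dark. Wells were counted for 30 seconds each on a TopCount after a 60-second delay, and percentage inhibition was calculated.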

Human μ-opioid (MOP) = biological target: T6, Human μ-opioid (MOP) (Homo sapiens, UniProt P35372); experiment: Radioligand binding, human μ-opioid (MOP) membranes, FlashPlate, [3H]-Naloxone; conditions: compound at 10 μM; for A7 radioligand binding, percentage inhibition / A7: inhibition of radioligand binding, human μ-opioid (MOP): [3H]-Naloxone
T6 construct: purchased Perkin Elmer Biosignal
Outline: as §1

Human melanocortin (MC5) = biological target: T7, Human melanocortin (MC5) (Homo sapiens, UniProt P33032); experiment: Radioligand binding, human melanocortin MC5 membranes, FlashPlate, [125I]-NDP-αMSH; conditions: compound at 10 μM; for A5 radioligand binding, percentage inhibition / A5: inhibition of radioligand binding, human melanocortin (MC5): [125I]-NDP-αMSH
T7 construct: purchased Perkin Elmer Biosignal
Outline: as §1

Human δ-opioid (DOP) = biological target: T8, Human δ-opioid (DOP) (Homo sapiens, UniProt P41143); experiment: Radioligand binding, human δ-opioid (DOP) membranes, FlashPlate, [3H]-Bremazocine; conditions: compound at 10 μM; for A1 radioligand binding, percentage inhibition / A1: inhibition of radioligand binding, human δ-opioid (DOP): [3H]-Bremazocine
T8 construct: purchased Perkin Elmer Biosignal
Outline: as §1

Human Melanocortin (MC3) = biological target: T9, Human Melanocortin (MC3) (Homo sapiens, UniProt P41968); experiment: Radioligand binding, human melanocortin MC3 membranes, FlashPlate, [125I]-NDP-αMSH; conditions: compound at 10 μM; for A3 radioligand binding, percentage inhibition / A3: inhibition of radioligand binding, human melanocortin (MC3): [125I]-NDP-αMSH
T9 construct: purchased Perkin Elmer Biosignal
Outline: as §1

Human neurokinin (NK1) = biological target: T10, Human neurokinin (NK1) (Homo sapiens, UniProt P25103); experiment: Radioligand binding, human neurokinin NK1 membranes, filtration, [125I]-Substance P; conditions: compound at 10 μM; for A8 radioligand binding, percentage inhibition / A8: inhibition of radioligand binding, human neurokinin (NK1): [125I]-Substance P
T10 construct: purchased Perkin Elmer Biosignal
Outline: as §2

[2] = biological target: T11, Human melanin-concentrating hormone (MCH1) (Homo sapiens, UniProt Q99705); experiment: Radioligand binding, human melanin-concentrating hormone MCH1 membranes, FlashPlate, [125I]-S36057; conditions: compound at 10 μM; for A6 radioligand binding, percentage inhibition / A6: inhibition of radioligand binding, human melanin-concentrating hormone (MCH1): [125I]-S36057
T11 construct: purchased Perkin Elmer Biosignal
Outline: as §1

T8 sequence (P41143 whole entry): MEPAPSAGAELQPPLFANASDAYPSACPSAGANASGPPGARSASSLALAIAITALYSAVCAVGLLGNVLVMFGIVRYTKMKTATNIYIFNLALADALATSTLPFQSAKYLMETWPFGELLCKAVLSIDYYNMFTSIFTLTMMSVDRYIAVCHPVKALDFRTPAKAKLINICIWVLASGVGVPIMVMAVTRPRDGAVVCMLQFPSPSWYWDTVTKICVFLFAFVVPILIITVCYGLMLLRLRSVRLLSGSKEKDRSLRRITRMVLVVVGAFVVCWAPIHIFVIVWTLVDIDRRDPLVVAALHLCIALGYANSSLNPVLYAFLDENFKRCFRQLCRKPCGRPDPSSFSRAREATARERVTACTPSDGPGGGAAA
T2 sequence (P32245 whole entry): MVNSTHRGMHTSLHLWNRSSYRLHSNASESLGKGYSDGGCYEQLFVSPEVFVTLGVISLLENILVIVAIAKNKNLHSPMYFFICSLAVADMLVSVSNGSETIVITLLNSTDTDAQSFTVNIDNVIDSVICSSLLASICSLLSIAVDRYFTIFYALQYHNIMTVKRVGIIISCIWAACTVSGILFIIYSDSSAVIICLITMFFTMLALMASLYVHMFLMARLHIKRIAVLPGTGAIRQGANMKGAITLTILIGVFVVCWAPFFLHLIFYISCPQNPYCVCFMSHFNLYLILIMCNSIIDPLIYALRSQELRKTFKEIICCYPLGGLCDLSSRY
T9 sequence (P41968 whole entry): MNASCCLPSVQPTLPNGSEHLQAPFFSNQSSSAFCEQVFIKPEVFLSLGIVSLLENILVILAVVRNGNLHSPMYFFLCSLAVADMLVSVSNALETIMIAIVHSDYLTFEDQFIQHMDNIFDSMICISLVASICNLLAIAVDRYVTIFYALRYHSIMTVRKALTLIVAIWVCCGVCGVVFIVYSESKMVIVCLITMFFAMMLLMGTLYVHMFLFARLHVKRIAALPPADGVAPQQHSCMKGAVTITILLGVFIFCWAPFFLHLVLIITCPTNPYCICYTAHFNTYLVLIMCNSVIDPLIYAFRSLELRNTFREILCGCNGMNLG
T7 sequence (P33032 whole entry): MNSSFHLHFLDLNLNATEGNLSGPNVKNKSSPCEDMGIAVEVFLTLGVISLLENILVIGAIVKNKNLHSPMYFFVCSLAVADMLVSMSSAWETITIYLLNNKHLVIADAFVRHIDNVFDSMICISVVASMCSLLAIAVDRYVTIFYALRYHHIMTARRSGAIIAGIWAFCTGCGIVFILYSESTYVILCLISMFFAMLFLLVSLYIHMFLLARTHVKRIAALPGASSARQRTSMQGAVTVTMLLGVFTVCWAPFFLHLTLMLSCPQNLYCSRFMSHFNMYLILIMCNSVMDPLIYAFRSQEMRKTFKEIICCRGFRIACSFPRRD
T11 sequence (Q99705 whole entry): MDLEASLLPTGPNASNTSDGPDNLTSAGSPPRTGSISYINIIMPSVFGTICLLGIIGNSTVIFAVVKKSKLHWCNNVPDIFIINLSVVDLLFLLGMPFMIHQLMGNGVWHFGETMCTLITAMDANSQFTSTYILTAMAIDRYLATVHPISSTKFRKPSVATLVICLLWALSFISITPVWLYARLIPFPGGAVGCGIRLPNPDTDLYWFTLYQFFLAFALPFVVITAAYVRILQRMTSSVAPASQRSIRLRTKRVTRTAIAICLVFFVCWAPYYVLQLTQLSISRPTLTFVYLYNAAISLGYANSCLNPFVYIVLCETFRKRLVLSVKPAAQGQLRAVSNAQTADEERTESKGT
T10 sequence (P25103 whole entry): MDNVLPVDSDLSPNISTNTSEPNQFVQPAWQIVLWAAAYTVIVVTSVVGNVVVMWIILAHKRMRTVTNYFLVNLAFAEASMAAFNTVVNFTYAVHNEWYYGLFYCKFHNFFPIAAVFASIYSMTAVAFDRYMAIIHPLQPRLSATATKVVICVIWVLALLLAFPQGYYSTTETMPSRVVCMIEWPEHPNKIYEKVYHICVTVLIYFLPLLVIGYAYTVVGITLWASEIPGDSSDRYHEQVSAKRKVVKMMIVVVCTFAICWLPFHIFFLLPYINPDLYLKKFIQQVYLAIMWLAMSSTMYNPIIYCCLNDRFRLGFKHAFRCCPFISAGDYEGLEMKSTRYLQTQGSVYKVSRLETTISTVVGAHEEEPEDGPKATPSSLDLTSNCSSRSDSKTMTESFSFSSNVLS
T6 sequence (P35372 whole entry): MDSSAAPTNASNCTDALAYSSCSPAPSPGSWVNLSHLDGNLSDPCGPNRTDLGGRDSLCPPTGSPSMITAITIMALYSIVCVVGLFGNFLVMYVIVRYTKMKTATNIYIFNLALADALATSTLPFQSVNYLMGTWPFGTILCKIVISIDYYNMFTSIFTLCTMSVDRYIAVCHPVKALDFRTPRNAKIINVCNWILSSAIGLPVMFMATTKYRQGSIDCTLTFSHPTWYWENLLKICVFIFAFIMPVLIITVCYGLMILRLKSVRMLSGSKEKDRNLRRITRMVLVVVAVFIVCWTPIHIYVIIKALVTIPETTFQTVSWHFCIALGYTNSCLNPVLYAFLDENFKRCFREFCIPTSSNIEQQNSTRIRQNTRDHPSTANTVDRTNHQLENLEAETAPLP
T1 sequence (P41146 whole entry): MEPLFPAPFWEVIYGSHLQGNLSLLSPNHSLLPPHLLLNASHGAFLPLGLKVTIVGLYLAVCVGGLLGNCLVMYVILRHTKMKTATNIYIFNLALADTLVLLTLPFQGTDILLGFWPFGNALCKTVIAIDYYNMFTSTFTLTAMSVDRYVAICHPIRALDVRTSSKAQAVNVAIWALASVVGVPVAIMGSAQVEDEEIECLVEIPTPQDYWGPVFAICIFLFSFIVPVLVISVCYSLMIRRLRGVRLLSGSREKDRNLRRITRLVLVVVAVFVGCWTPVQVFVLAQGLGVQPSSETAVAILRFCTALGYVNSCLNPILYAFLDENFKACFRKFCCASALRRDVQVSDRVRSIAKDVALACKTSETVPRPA
T3 sequence (P41145 whole entry): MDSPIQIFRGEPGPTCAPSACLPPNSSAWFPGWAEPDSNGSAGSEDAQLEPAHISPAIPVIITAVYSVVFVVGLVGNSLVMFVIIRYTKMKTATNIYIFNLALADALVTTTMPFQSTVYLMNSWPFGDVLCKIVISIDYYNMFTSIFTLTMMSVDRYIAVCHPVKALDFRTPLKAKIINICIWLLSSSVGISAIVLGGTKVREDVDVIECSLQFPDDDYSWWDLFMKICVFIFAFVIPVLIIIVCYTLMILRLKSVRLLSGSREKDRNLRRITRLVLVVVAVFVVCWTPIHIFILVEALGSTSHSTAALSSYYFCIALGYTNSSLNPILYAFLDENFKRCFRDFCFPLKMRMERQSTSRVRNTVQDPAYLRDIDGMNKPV

SMILES	A10 radioligand binding, percentage inhibition (Human opioid (ORL1))	A4 radioligand binding, percentage inhibition (Human Melanocortin (MC4))	A2 radioligand binding, percentage inhibition (Human κ-Opioid (KOP))	A9 radioligand binding, percentage inhibition [1]	A11 radioligand binding, percentage inhibition (Mouse urotensin (mUR2))	A7 radioligand binding, percentage inhibition (Human μ-opioid (MOP))	A5 radioligand binding, percentage inhibition (Human melanocortin (MC5))	A1 radioligand binding, percentage inhibition (Human δ-opioid (DOP))	A3 radioligand binding, percentage inhibition (Human Melanocortin (MC3))	A10: inhibition of radioligand binding, human opioid (ORL1) (Human opioid (ORL1))	A4: inhibition of radioligand binding, human melanocortin (MC4) (Human Melanocortin (MC4))	A2: inhibition of radioligand binding, human κ-opioid (KOP) (Human κ-Opioid (KOP))	A9: inhibition of radioligand binding, human neuropeptide Y (NPY-Y1) [1]	A11: inhibition of radioligand binding, mouse urotensin (mUR2) (Mouse urotensin (mUR2))	A7: inhibition of radioligand binding, human μ-opioid (MOP) (Human μ-opioid (MOP))	A5: inhibition of radioligand binding, human melanocortin (MC5) (Human melanocortin (MC5))	A1: inhibition of radioligand binding, human δ-opioid (DOP) (Human δ-opioid (DOP))	A3: inhibition of radioligand binding, human melanocortin (MC3) (Human Melanocortin (MC3))	A8: inhibition of radioligand binding, human neurokinin (NK1) (Human neurokinin (NK1))	A6: inhibition of radioligand binding, human melanin-concentrating hormone (MCH1) [2]	other results
CO[C@H]1[C@H](O)[C@@H](COCc2ccccc2)OC(OCc2ccc(-c3ccccc3)cc2)[C@@H]1NC(=O)CNC(=N)N (stereo partly drawn) [compound 58]	–	–	–	–	–	–	–	–	–	–	–	–	–	–	–	–	–	–	–	–	A10 radioligand binding inhibition (Human opioid (ORL1); human ORL1 membranes): − (“−” indicates less than 50% inhibition at 10 μM); A4 radioligand binding inhibition (Human Melanocortin (MC4); human melanocortin MC4 membranes): + (“+” indicates greater than 50% inhibition at 10 μM); A2 radioligand binding inhibition (Human κ-Opioid (KOP); human κ-opioid (KOP) membranes): + (“+” indicates greater than 50% inhibition at 10 μM); A9 radioligand binding inhibition ([1]; human NPY-Y1 membranes): − (“−” indicates less than 50% inhibition at 10 μM); A11 radioligand binding inhibition (Mouse urotensin (mUR2); mouse urotensin mUR2 membranes): − (“−” indicates less than 50% inhibition at 10 μM); A7 radioligand binding inhibition (Human μ-opioid (MOP); human μ-opioid (MOP) membranes): + (“+” indicates greater than 50% inhibition at 10 μM); A5 radioligand binding inhibition (Human melanocortin (MC5); human melanocortin MC5 membranes): + (“+” indicates greater than 50% inhibition at 10 μM); A1 radioligand binding inhibition (Human δ-opioid (DOP); human δ-opioid (DOP) membranes): − (“−” indicates less than 50% inhibition at 10 μM); A3 radioligand binding inhibition (Human Melanocortin (MC3); human melanocortin MC3 membranes): − (“−” indicates less than 50% inhibition at 10 μM); A8 radioligand binding inhibition (Human neurokinin (NK1); human neurokinin NK1 membranes): + (“+” indicates greater than 50% inhibition at 10 μM); A6 radioligand binding inhibition ([2]; human MCH1 membranes): − (“−” indicates less than 50% inhibition at 10 μM)
CO[C@H]1[C@H](O)[C@@H](COCc2ccc3ccccc3c2)OC(OCc2ccc(Cl)cc2)[C@@H]1NC(=O)CCCNC(=N)N (stereo partly drawn) [compound 100]	+ (“+” indicates greater than 50% inhibition at 10 μM)	+ (“+” indicates greater than 50% inhibition at 10 μM)	− (“−” indicates less than 50% inhibition at 10 μM)	− (“−” indicates less than 50% inhibition at 10 μM)	− (“−” indicates less than 50% inhibition at 10 μM)	+ (“+” indicates greater than 50% inhibition at 10 μM)	+ (“+” indicates greater than 50% inhibition at 10 μM)	− (“−” indicates less than 50% inhibition at 10 μM)	+ (“+” indicates greater than 50% inhibition at 10 μM)	–	–	–	–	–	–	–	–	–	–	–	A8 radioligand binding, percentage inhibition (Human neurokinin (NK1)): + (“+” indicates greater than 50% inhibition at 10 μM); A6 radioligand binding, percentage inhibition [2]: + (“+” indicates greater than 50% inhibition at 10 μM)
NCCCC(=O)NC1C(OCc2ccccc2)OC(COCc2ccc3ccccc3c2)C(O)C1OCc1ccc(Cl)cc1 (stereo not drawn) [compound 372]	–	–	–	–	–	–	–	–	–	− (“−” indicates less than 50% inhibition at 10 μM)	+ (“+” indicates greater than 50% inhibition at 10 μM)	− (“−” indicates less than 50% inhibition at 10 μM)	− (“−” indicates less than 50% inhibition at 10 μM)	− (“−” indicates less than 50% inhibition at 10 μM)	− (“−” indicates less than 50% inhibition at 10 μM)	+ (“+” indicates greater than 50% inhibition at 10 μM)	− (“−” indicates less than 50% inhibition at 10 μM)	− (“−” indicates less than 50% inhibition at 10 μM)	+ (“+” indicates greater than 50% inhibition at 10 μM)	− (“−” indicates less than 50% inhibition at 10 μM)	–
NCC1CCC(C(=O)NC2O[C@H](CO)[C@@H](O)[C@H](OCc3cccc4ccccc34)[C@H]2NC(=O)c2ccccc2)CC1 (stereo partly drawn) [compound 362]	–	–	–	–	–	–	–	–	–	− (“−” indicates less than 50% inhibition at 10 μM)	− (“−” indicates less than 50% inhibition at 10 μM)	− (“−” indicates less than 50% inhibition at 10 μM)	− (“−” indicates less than 50% inhibition at 10 μM)	− (“−” indicates less than 50% inhibition at 10 μM)	− (“−” indicates less than 50% inhibition at 10 μM)	− (“−” indicates less than 50% inhibition at 10 μM)	− (“−” indicates less than 50% inhibition at 10 μM)	− (“−” indicates less than 50% inhibition at 10 μM)	+ (“+” indicates greater than 50% inhibition at 10 μM)	− (“−” indicates less than 50% inhibition at 10 μM)	–
NCCCC(=O)NC1C(OCc2ccc(Cl)cc2)OC(COCc2ccc3ccccc3c2)C(O)C1OCc1ccc2ccccc2c1 (single isomer, unassigned) [compound 495]	–	–	–	–	–	–	–	–	–	+ (“+” indicates greater than 50% inhibition at 10 μM)	+ (“+” indicates greater than 50% inhibition at 10 μM)	− (“−” indicates less than 50% inhibition at 10 μM)	− (“−” indicates less than 50% inhibition at 10 μM)	− (“−” indicates less than 50% inhibition at 10 μM)	+ (“+” indicates greater than 50% inhibition at 10 μM)	+ (“+” indicates greater than 50% inhibition at 10 μM)	− (“−” indicates less than 50% inhibition at 10 μM)	+ (“+” indicates greater than 50% inhibition at 10 μM)	+ (“+” indicates greater than 50% inhibition at 10 μM)	+ (“+” indicates greater than 50% inhibition at 10 μM)	–
CO[C@H]1[C@H](O)[C@@H](COCc2ccccc2)OC(OCCc2ccccc2)[C@@H]1NC(=O)CCCNC(=N)N (stereo partly drawn) [compound 118]	− (“−” indicates less than 50% inhibition at 10 μM)	− (“−” indicates less than 50% inhibition at 10 μM)	− (“−” indicates less than 50% inhibition at 10 μM)	− (“−” indicates less than 50% inhibition at 10 μM)	− (“−” indicates less than 50% inhibition at 10 μM)	− (“−” indicates less than 50% inhibition at 10 μM)	− (“−” indicates less than 50% inhibition at 10 μM)	− (“−” indicates less than 50% inhibition at 10 μM)	− (“−” indicates less than 50% inhibition at 10 μM)	–	–	–	–	–	–	–	–	–	–	–	A8 radioligand binding, percentage inhibition (Human neurokinin (NK1)): + (“+” indicates greater than 50% inhibition at 10 μM); A6 radioligand binding, percentage inhibition [2]: − (“−” indicates less than 50% inhibition at 10 μM)

— US20080009418A1, “Selective Inhibitors” (Alchemia LTD., priority 2004, published 2008)
